Laboratory results: patent publication US20240368090A1, “SOLID STATE FORMS OF D[…] PROCESS FOR THEIR PREPARATION” (REDDY’S LABORATORIES LIMITED, priority 2023, published 2024)

Assay: physical and chemical stability under standard stability conditions
Format: physicochemical
Method: In another aspect of the present disclosure, the crystalline form DP-9 of Daprodustat which is physically & chemically stable under standard stability conditions like 25° C.-60% RH, 40° C.-75% RH and 2-8° C. for at least 3 months.

Measured: physically & chemically stable for at least

O=C(O)CNC(=O)C1C(=O)N(C2CCCCC2)C(=O)N(C2CCCCC2)C1=O [Form DP-9]
at least 3 months: 2-8° C. | 25° C.-60% RH | 40° C.-75% RH
